For 60 molecules, LC retention time results are on record in the RepoRT retention time repository (doi:10.1021/acs.analchem.1c00972).

The data set is described as follows: RP, Waters ACQUITY UPLC BEH C18, 100 × 1 mm, 1.7 µm, 50 °C, 0.3 mL/min, estimated dead time 0.17 min; A: water + 0.1% formic acid + 20 mM ammonium formate; B: methanol + 0.1% formic acid + 20 mM ammonium formate; gradient (min/%B) 0/0 15/100 21/100 22/0 30/0. The note with it: stereoisomer not certain.
Regarding `CC12CCC3C(=CCc4cc(O)ccc43)C1CCC2=O` (stereo not given) [Equilin], the LC retention time is 13.8 min. Take `O=S(=O)(O)C(F)(F)F` [Trifluoromethanesulfonic acid]: the LC retention time is 2 min. On to `CCOC(=O)C1=CC(OC(CC)CC)C(NC(C)=O)C(N)C1` (stereo not given) [Oseltamivir], for which the LC retention time is 11.5 min. Then `CC1CCC2(C(=O)O)CCC3(C)C(=CCC4C5(C)CCC(O)C(C)(C)C5CCC43C)C2C1C` (stereo not given) [Ursolic acid], with 18.5 min; and `CN(C)CCc1ccc(O)cc1` [Hordenine], with 3.04 min; and `CCc1cccc(C)c1NC(=O)CCl` [Metolachlor-N-dealkylation], with 13.7 min. As for `CC1(C)C2CC=C(CO)C1C2` (single isomer, unassigned; (-)) [(-)-Myrtenol], the figure is 11.5 min; as for `CC(C)C1CCC(Cc2ccc(Cl)cc2)C1(O)Cn1cncn1` (single isomer, unassigned; isomer 1) [Ipconazole (Isomer 1)], 16.4 min; as for `CCC1(O)C(=O)OCc2c1cc1n(c2=O)Cc2cc3ccccc3nc2-1` (stereo not given) [Camptothecin], 12 min. For the molecule `CCOP(=S)(OCC)Oc1cnc2ccccc2n1` [Quinalophos], the LC retention time is 15.3 min. As for `CCSCCSP(=O)(OC)OC` [Demeton-S-methyl], the figure is 11.8 min. Turning to `CCOC(=O)C(SP(=S)(OC)OC)c1ccccc1` (stereo not given) [Phenthoate], the LC retention time is 15.4 min. Consider `CCCCCCCCSCCOCCOCCOCCO` [3,6,9-Trioxa-12-thia-eicosanol], for which the LC retention time is 18.3 min.

On to `CCNc1nc(=S)nc(NC(C)(C)C)[nH]1` [Terbutryn-desmethyl], for which the LC retention time was 11.9 min. For `O=C(O)Cc1c(Cl)ccc(Cl)c1Cl` [Chlorfenac], the LC retention time is 2.02 min. Consider `Cc1nccc2ccccc12` [1-Methylisochinolin], for which the LC retention time is 6.14 min. For `C=CC1CN2CCC1CC2C(O)c1ccnc2ccc(OC)cc12` (stereo not given) [quinidine], the LC retention time was 9.5 min. Regarding `O=C(NCc1ncc(C(F)(F)F)cc1Cl)c1c(Cl)cccc1Cl` [Fluopicolide], the LC retention time is 14.4 min. Then `CC1=NNC(=O)N(N=Cc2cccnc2)C1` [Pymetrozine], with 5.76 min; and `COP(=O)(OC)Oc1nc(Cl)c(Cl)cc1Cl` [Chlorpyrifos-methyl-oxon], with 13.7 min; and `CCOP(=O)(O)OCC` [Diethyl phopshate], with 16.3 min. Regarding `CC12CCC3=C4CCC(=O)C=C4CCC3C1CCC2(O)CC#N` (stereo not given) [Dienogest], the LC retention time is 12.6 min. In the case of `O=c1cc(O)c2ccccc2o1` [4-Hydroxycoumarin], the LC retention time is 10.7 min. Turning to `Cc1cc(C(C)(C)C)cc(C)c1CC1=NCCN1` [Xylometazoline], the LC retention time is 12.4 min. For `CCc1cc(C)cc(CC)c1-c1c(OC(=O)C(C)(C)C)n2n(c1=O)CCOCC2` [Pinoxaden], the LC retention time is 10.5 min.

On to `CC(CCC(=O)O)C1CCC2C3C(O)CC4CC(O)CCC4(C)C3CC(O)C12C` (stereo not given) [Cholic acid], for which the LC retention time is 16.1 min.

In the case of `Nc1c(Cl)cccc1Cl` [2,6-Dichloroaniline], the LC retention time was 17.6 min.

For the molecule `Cc1cc(C2CCCCC2)n(O)c(=O)c1` [Ciclopirox], the LC retention time is 14.9 min. Then `Cn1ncc(N)c(Cl)c1=O` [Methyl-Desphenyl-Chloridazon], with 5.18 min. For `Cc1ccc(N)cc1O` [5-Amino-o-cresol], the LC retention time is 3.69 min. For the molecule `C=CC12CN(C)C3C4COC(CC41)C1(C(=O)Nc4ccccc41)C32` (stereo not given) [Gelsemine], the LC retention time was 7.38 min.

Turning to `CCOCN(C(=O)C(=O)O)c1c(C)cccc1CC` [Acetochlor OA], the LC retention time was 15.5 min. For the molecule `CC=C(C)C(=O)NCC(=O)O` [N-Tigloylglycine], the LC retention time was 6.4 min.

With `COC(=O)C(C)=COP(=S)(OC)OC` [Methacrifos], the LC retention time was 12.1 min. For the molecule `CCCCCCCCCCCCCCCC(=O)OCC(O)CO` (stereo not given) [Glyceryl-1-monopalmitate], the LC retention time was 18.6 min.

For the molecule `O=C(O)c1cc(=O)c2ccccc2[nH]1` [Kynurenic acid], the LC retention time was 6.9 min. With `CCCCCC(O)CC(=O)CCc1ccc(O)c(OC)c1` (stereo not given) [[6]-Gingerol], the LC retention time is 14 min. As to `CNC(=O)ON=C(CSC)C(C)(C)C` [Thiofanox], the LC retention time is 11.7 min.

Consider `COc1nn(CSP(=S)(OC)OC)c(=O)s1` [Methidation], for which the LC retention time is 13.2 min. Regarding `COCCOCCO` [Diethyleneglycolmonomethylether], the LC retention time is 5.03 min. Take `CC12CC1(C)C(=O)N(c1cc(Cl)cc(Cl)c1)C2=O` (stereo not given) [Procymidone]: the LC retention time is 14.6 min. `CCNC(=O)C(C)Oc1cccc2ccccc12` (stereo not given) [Desethyl-napropamide]: the LC retention time was 14 min. Then `COP(N)(=S)Oc1ccccc1C(=O)OC(C)C` (stereo not given) [Isocarbophos], with 13.2 min; and `CNC(=O)N(C)c1nnc(C(F)(F)F)s1` [Thiazafluron], with 11.8 min; and `CNC(=O)NCc1cnc(Cl)s1`, with 7.69 min. As for `c1ccc(Oc2ccccc2)cc1` [Diphenylether], the figure is 13.5 min; as for `CCNP(=S)(OC)OC(C)=CC(=O)OC(C)C` (stereo not given) [Propetamphos], 14.6 min. For `COC(=O)c1ccc(CNS(C)(=O)=O)cc1S(=O)(=O)NC(=O)Nc1nc(OC)cc(OC)n1` [Mesosulfuron-methyl], the LC retention time was 12.8 min. Then `CC(C)(C)c1n[nH]c(=O)n(N)c1=O` [Metribuzin-diketo], with 9.82 min; and `CC1OC(OCC2OC(Oc3c(-c4ccc(O)c(O)c4)oc4cc(O)cc(O)c4c3=O)C(O)C(O)C2O)C(O)C(O)C1O` (stereo not given) [Rutin], with 9.75 min. Then `CN(C)c1ccc(O)c2c1CC1CC3C(N(C)C)C(=O)C(C(N)=O)=C(O)C3(O)C(=O)C1=C2O` (stereo not given) [Minocyclin], with 8.3 min. As for `Cc1ccc(OP(=O)(Oc2ccccc2)Oc2ccccc2)cc1` [Diphenyltolyl phosphate], the figure is 16.3 min. Take `O=c1cc(-c2ccc(O)cc2)oc2cc(OC3OC(CO)C(O)C(O)C3OC3OCC(O)(CO)C3O)cc(O)c12` (stereo not given) [Apiin]: the LC retention time is 10.3 min. `CC1(C)C(=O)Oc2ccc(OS(C)(=O)=O)cc21` [Ethofumesate-2-keto]: the LC retention time was 12 min. For the molecule `C1=Cc2ccccc2Nc2ccccc21` [Iminostilbene], the LC retention time was 14.5 min. Take `CCOc1ccc(NC(=O)OC(C)C)cc1OCC` [Diethofencarb]: the LC retention time was 7.48 min. With `CC(C)(N)CN` [1,2-Diamino-2-methylpropane], the LC retention time was 18.5 min. Then `CCOC(=O)C1(c2ccccc2)CCC=CC1N(C)C` (stereo not given) [Tilidine], with 9.57 min; and `Cn1sccc1=O` [2-Methyl-4-isothiazolin-3-one], with 3.3 min; and `CCCCCC1=CC(=O)C=C(OC)C1=O` [Primin], with 14.3 min.
